According to US20190031618A1, “BENZIMIDAZOLE DERIVATIVES USEFUL AS CB-1 INVERSE AGONISTS” (Janssen Pharmaceutica NV, priority 2015, published 2019):
“And” between values parts separate entries of the source, which are not always exact repeats. Equal entries are not always repeated.

Test: Five-Day Study in DIO Mice: plasma and brain compound levels
Settings: mouse, in vivo, 30 mg/kg

Compound: CCc1nc2ccc(C(c3ccc(Cl)cc3)c3ccc(Cl)cc3)cc2n1C1CCN(S(=O)(=O)C(F)(F)F)CC1 [Example 328]
- concentration at 2 h: 8360 ng/mL and 291 ng/g
